These results are taken from patent US10040781B2, “Tank-binding kinase inhibitor compounds” (Gilead Sciences, Inc., priority 2014, dated 2018).

Molecules are shown by their SMILES.

The target in the first test is hJAK2 (Homo sapiens (Human), UniProt O60674). The test is described as follows: hJAK2 LANCE TR-FRET enzymatic assay. The class given is biochemical. Conditions: read-out: JAK2 IC50.
Sequence of hJAK2 (O60674 whole entry): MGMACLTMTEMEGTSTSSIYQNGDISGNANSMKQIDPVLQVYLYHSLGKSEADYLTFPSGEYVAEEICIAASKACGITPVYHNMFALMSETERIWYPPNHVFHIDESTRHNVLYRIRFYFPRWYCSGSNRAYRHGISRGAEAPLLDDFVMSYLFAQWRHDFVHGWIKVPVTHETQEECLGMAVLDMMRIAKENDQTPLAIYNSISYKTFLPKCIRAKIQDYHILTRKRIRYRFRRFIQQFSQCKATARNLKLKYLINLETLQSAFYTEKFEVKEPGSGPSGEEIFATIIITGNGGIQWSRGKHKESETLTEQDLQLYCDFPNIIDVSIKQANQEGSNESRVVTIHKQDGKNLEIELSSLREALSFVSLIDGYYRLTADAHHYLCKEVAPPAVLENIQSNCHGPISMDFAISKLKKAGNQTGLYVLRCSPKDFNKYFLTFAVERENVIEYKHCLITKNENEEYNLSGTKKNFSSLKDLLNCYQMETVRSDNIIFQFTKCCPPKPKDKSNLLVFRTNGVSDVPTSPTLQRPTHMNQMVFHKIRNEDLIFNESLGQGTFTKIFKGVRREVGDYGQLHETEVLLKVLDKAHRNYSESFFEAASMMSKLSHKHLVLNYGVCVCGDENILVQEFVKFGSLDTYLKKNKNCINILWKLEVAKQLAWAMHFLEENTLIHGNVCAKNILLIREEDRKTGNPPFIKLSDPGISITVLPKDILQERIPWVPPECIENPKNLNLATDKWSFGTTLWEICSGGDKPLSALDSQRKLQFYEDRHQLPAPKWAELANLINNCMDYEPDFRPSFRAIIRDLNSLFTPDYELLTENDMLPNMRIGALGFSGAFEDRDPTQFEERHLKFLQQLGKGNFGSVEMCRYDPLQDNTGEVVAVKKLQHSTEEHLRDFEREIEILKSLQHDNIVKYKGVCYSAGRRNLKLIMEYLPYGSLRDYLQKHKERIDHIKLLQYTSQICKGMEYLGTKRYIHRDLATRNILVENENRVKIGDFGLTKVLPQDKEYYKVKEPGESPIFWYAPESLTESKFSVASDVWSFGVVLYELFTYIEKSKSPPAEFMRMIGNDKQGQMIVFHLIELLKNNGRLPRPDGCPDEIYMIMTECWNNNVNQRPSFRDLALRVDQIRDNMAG
For the molecule `N#Cc1cc(-c2ncnc(Nc3ccc(N4CCN(C5COC5)CC4)cc3)n2)ccc1O[C@@H]1CCN(C(=O)CO)C1` [Example 30, (R)-2-((1-(2-hydroxyacetyl)pyrrolidin-3-yl)oxy)-5-(4-((4-(4-(oxetan-3-yl)piperazin-1-yl)phenyl)amino)-1,3,5-triazin-2-yl)benzonitrile], the IC50 came to 387 nM.
Same read-out and setting: under `N#CCC(=O)N1CCC(Oc2ccc(-c3ncnc(Nc4ccc(N5CCN(C6COC6)CC5)cc4)n3)cc2C#N)CC1` [Example 44, 2-((1-(2-cyanoacetyl)piperidin-4-yl)oxy)-5-(4-((4-(4-(oxetan-3-yl)piperazin-1-yl)phenyl)amino)-1,3,5-triazin-2-yl)benzonitrile] stands 444 nM; under `CS(=O)(=O)c1ccc(Nc2ncnc(-c3ccc(OC4CCOCC4)c(C#N)c3)n2)cc1` [Example 50, 5-(4-((4-(methylsulfonyl)phenyl)amino)-1,3,5-triazin-2-yl)-2-((tetrahydro-2H-pyran-4-yl)oxy)benzonitrile], over 1000 nM.
On the same count and under the same terms, under `N#Cc1cc(-c2ncnc(Nc3cccc(N4CCOCC4)c3)n2)ccc1O[C@@H]1CCN(C(=O)CO)C1` [Example 81, (R)-2-((1-(2-hydroxyacetyl)pyrrolidin-3-yl)oxy)-5-(4-((3-morpholinophenyl)amino)-1,3,5-triazin-2-yl)benzonitrile] stands 290 nM; under `C[C@H](O)C(=O)N1CC[C@H](Oc2ccc(-c3ncnc(Nc4ccc(N5CCN(C6COC6)CC5)c(Cl)c4)n3)cc2C#N)[C@H](F)C1` [Example 378, 5-(4-((3-chloro-4-(4-(oxetan-3-yl)piperazin-1-yl)phenyl)amino)-1,3,5-triazin-2-yl)-2-(((3R,4S)-3-fluoro-1-((S)-2-hydroxypropanoyl)piperidin-4-yl)oxy)benzonitrile], 173 nM; under `C[C@H]1CN(C2COC2)CCN1c1ccc(Nc2ncnc(-c3ccc(O[C@H]4CCN(C(=O)[C@@H]5CCC(=O)N5)C[C@H]4F)c(C#N)c3)n2)cc1` [Example 381, 2-(((3R,4S)-3-fluoro-1-((S)-5-oxopyrrolidine-2-carbonyl)piperidin-4-yl)oxy)-5-(4-((4-((S)-2-methyl-4-(oxetan-3-yl)piperazin-1-yl)phenyl)amino)-1,3,5-triazin-2-yl)benzonitrile], at least 1000 nM.
Regarding `C[C@H](O)C(=O)N1CC[C@H](Oc2ccc(-c3ncnc(Nc4ccc(O[C@H]5CCN(C6COC6)C[C@H]5F)cc4)n3)cc2C#N)[C@H](F)C1` [Example 401, 2-(((3R,4S)-3-fluoro-1-((S)-2-hydroxypropanoyl)piperidin-4-yl)oxy)-5-(4-((4-(((3R,4S)-3-fluoro-1-(oxetan-3-yl)piperidin-4-yl)oxy)phenyl)amino)-1,3,5-triazin-2-yl)benzonitrile], the IC50 was at least 1000 nM.
On the same count and under the same terms, under `N#Cc1cc(-c2ncnc(Nc3ccc(N4CCN(C5COC5)CC4)cc3)n2)ccc1O[C@H]1CCN(C(=O)[C@@H]2C[C@@H](O)C(=O)N2)C[C@H]1F` [Example 403, 2-(((3R,4S)-3-fluoro-1-((2S,4R)-4-hydroxy-5-oxopyrrolidine-2-carbonyl)piperidin-4-yl)oxy)-5-(4-((4-(4-(oxetan-3-yl)piperazin-1-yl)phenyl)amino)-1,3,5-triazin-2-yl)benzonitrile] stands 858 nM; under `N#Cc1cc(-c2ncnc(Nc3ccc(N4CCN(C5COC5)CC4)cc3)n2)ccc1O[C@H]1CCN(C(=O)[C@@H]2C[C@@H](F)C(=O)N2)C[C@H]1F` [Example 405, 2-(((3R,4S)-3-fluoro-1-((2S,4R)-4-fluoro-5-oxopyrrolidine-2-carbonyl)piperidin-4-yl)oxy)-5-(4-((4-(4-(oxetan-3-yl)piperazin-1-yl)phenyl)amino)-1,3,5-triazin-2-yl)benzonitrile], at least 1000 nM; under `N#Cc1cc(-c2ncnc(Nc3ccc(N4CCN(C5COC5)CC4)cc3)n2)ccc1O[C@H]1CCN(C(=O)[C@@H]2C[C@H](F)C(=O)N2)C[C@H]1F` [Example 406, 2-(((3R,4S)-3-fluoro-1-((2S,4S)-4-fluoro-5-oxopyrrolidine-2-carbonyl)piperidin-4-yl)oxy)-5-(4-((4-(4-(oxetan-3-yl)piperazin-1-yl)phenyl)amino)-1,3,5-triazin-2-yl)benzonitrile], at least 1000 nM.
On the same count and under the same terms, under `N#Cc1cc(-c2ncnc(Nc3ccc(N4CCN(C5COC5)CC4)cc3)n2)ccc1O[C@H]1CCN(C(=O)[C@@H]2C[C@H](O)C(=O)N2)C[C@H]1F` [Example 410, 2-(((3R,4S)-3-fluoro-1-((2S,4S)-4-hydroxy-5-oxopyrrolidine-2-carbonyl)piperidin-4-yl)oxy)-5-(4-((4-(4-(oxetan-3-yl)piperazin-1-yl)phenyl)amino)-1,3,5-triazin-2-yl)benzonitrile] stands 450 nM; under `Cc1n[nH]c(C(=O)N2CC[C@H](Oc3ccc(-c4ncnc(Nc5ccc(N6CCN(C7COC7)CC6)cc5)n4)cc3C#N)[C@H](F)C2)n1` [Example 451, 2-(((3R,4S)-3-fluoro-1-(3-methyl-1H-1,2,4-triazole-5-carbonyl)piperidin-4-yl)oxy)-5-(4-((4-(4-(oxetan-3-yl)piperazin-1-yl)phenyl)amino)-1,3,5-triazin-2-yl)benzonitrile], 90 nM; under `N#Cc1cc(-c2ncnc(Nc3cnn(C(F)F)c3)n2)ccc1O[C@H]1CCN(C(=O)CO)C[C@H]1F` [Example 454, 5-(4-((1-(difluoromethyl)-1H-pyrazol-4-yl)amino)-1,3,5-triazin-2-yl)-2-(((3R,4S)-3-fluoro-1-(2-hydroxyacetyl)piperidin-4-yl)oxy)benzonitrile], 621 nM.
On the same count and under the same terms, under `C[C@@H](O)C(=O)N1CC[C@H](Oc2ccc(-c3ncnc(Nc4ccc(N5CCN(C6COC6)CC5)cc4)n3)cc2C#N)[C@H](F)C1` [Example 464, 2-(((3R,4S)-3-fluoro-1-((R)-2-hydroxypropanoyl)piperidin-4-yl)oxy)-5-(4-((4-(4-(oxetan-3-yl)piperazin-1-yl)phenyl)amino)-1,3,5-triazin-2-yl)benzonitrile] stands 332 nM.
For the molecule `CC(=O)N1CC[C@H](Oc2ccc(-c3ncnc(Nc4ccc(S(C)(=N)=O)cc4)n3)cc2C#N)C(F)(F)C1` (stereo partly shown) [Example 481], the IC50 was found to be 320 nM.
The same measure, in the same setting: under `COc1cc(Nc2ncnc(-c3ccc(O[C@H]4CCN(C(=O)[C@H](C)O)C[C@H]4F)c(C#N)c3)n2)cnc1N1CCN(C2COC2)CC1` [Example 514, 2-(((3R,4S)-3-fluoro-1-((S)-2-hydroxypropanoyl)piperidin-4-yl)oxy)-5-(4-((5-methoxy-6-(4-(oxetan-3-yl)piperazin-1-yl)pyridin-3-yl)amino)-1,3,5-triazin-2-yl)benzonitrile] stands at least 1000 nM; under `C[C@H](O)C(=O)N1CC[C@H](Oc2ccc(-c3ncnc(Nc4ccc([C@@H]5C(=O)N(C)CCN5C)cc4)n3)cc2C#N)[C@H](F)C1` [Example 518, 5-(4-((4-((R)-1,4-dimethyl-3-oxopiperazin-2-yl)phenyl)amino)-1,3,5-triazin-2-yl)-2-(((3R,4S)-3-fluoro-1-((S)-2-hydroxypropanoyl)piperidin-4-yl)oxy)benzonitrile], at least 1000 nM.
In the case of `N#Cc1cc(-c2ncnc(Nc3ccc(N4CCN(C5COC5)CC4)cc3)n2)ccc1O[C@H]1CCN(C(=O)[C@@H]2CSC(=O)N2)C[C@H]1F` [Example 530, 2-(((3R,4S)-3-fluoro-1-((R)-2-oxothiazolidine-4-carbonyl)piperidin-4-yl)oxy)-5-(4-((4-(4-(oxetan-3-yl)piperazin-1-yl)phenyl)amino)-1,3,5-triazin-2-yl)benzonitrile], the IC50 stood at 289 nM.
Still for that read-out and setting: under `COc1cc(Nc2ncnc(-c3ccc(O[C@H]4CCN(C(=O)CC#N)C[C@H]4F)c(C#N)c3)n2)ccc1N1CCN(C2COC2)CC1` [Example 558, 2-(((3R,4S)-1-(2-cyanoacetyl)-3-fluoropiperidin-4-yl)oxy)-5-(4-((3-methoxy-4-(4-(oxetan-3-yl)piperazin-1-yl)phenyl)amino)-1,3,5-triazin-2-yl)benzonitrile] stands 26 nM; under `Cc1cc(Nc2ncnc(-c3ccc(O[C@H]4CCN(C(=O)[C@@H](O)CO)C[C@H]4F)c(C#N)c3)n2)ccc1N1CCN(C2COC2)CC1` [Example 575, 2-(((3R,4S)-1-((S)-2,3-dihydroxypropanoyl)-3-fluoropiperidin-4-yl)oxy)-5-(4-((3-methyl-4-(4-(oxetan-3-yl)piperazin-1-yl)phenyl)amino)-1,3,5-triazin-2-yl)benzonitrile], 62 nM; under `Cc1cc(Nc2ncnc(-c3ccc(O[C@H]4CCN(C(=O)[C@H](O)CO)C[C@H]4F)c(C#N)c3)n2)ccc1N1CCN(C2COC2)CC1` [Example 576, 2-(((3R,4S)-1-((R)-2,3-dihydroxypropanoyl)-3-fluoropiperidin-4-yl)oxy)-5-(4-((3-methyl-4-(4-(oxetan-3-yl)piperazin-1-yl)phenyl)amino)-1,3,5-triazin-2-yl)benzonitrile], 56 nM.
The same measure, in the same setting: under `COc1cc(Nc2ncnc(-c3ccc(O[C@H]4CCN(C(=O)[C@@H](O)CO)C[C@H]4F)c(C#N)c3)n2)ccc1N1CCN(C2COC2)CC1` [Example 578, 2-(((3R,4S)-1-((S)-2,3-dihydroxypropanoyl)-3-fluoropiperidin-4-yl)oxy)-5-(4-((3-methoxy-4-(4-(oxetan-3-yl)piperazin-1-yl)phenyl)amino)-1,3,5-triazin-2-yl)benzonitrile] stands 70 nM; under `COc1cc(Nc2ncnc(-c3ccc(O[C@H]4CCN(C(=O)[C@H](O)CO)C[C@H]4F)c(C#N)c3)n2)ccc1N1CCN(C2COC2)CC1` [Example 579, 2-(((3R,4S)-1-((R)-2,3-dihydroxypropanoyl)-3-fluoropiperidin-4-yl)oxy)-5-(4-((3-methoxy-4-(4-(oxetan-3-yl)piperazin-1-yl)phenyl)amino)-1,3,5-triazin-2-yl)benzonitrile], 48 nM.
The same measure, in the same setting: under `C[C@H](O)C(=O)N1CC[C@H](Oc2ccc(-c3ncnc(Nc4ccc(N5CCN6CCOC[C@H]6C5)cc4)n3)cc2C#N)[C@H](F)C1` [Example 619, 2-(((3R,4S)-3-fluoro-1-((S)-2-hydroxypropanoyl)piperidin-4-yl)oxy)-5-(4-((4-((R)-hexahydropyrazino[2,1-c][1,4]oxazin-8(1H)-yl)phenyl)amino)-1,3,5-triazin-2-yl)benzonitrile] stands 364 nM.

A further test deals with TBK1 (Homo sapiens (Human), UniProt Q9UHD2). The test is described as follows: TBK1 TR-FRET enzymatic assay.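 Note: phosphorylation of a biotinylated Ser/Thr peptide by purified full-length recombinant TBK1, read by TR-FRET after 240 min at 25 °C, IC50 is the geometric mean of at least four runs.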
Sequence of TBK1 (Q9UHD2 whole entry): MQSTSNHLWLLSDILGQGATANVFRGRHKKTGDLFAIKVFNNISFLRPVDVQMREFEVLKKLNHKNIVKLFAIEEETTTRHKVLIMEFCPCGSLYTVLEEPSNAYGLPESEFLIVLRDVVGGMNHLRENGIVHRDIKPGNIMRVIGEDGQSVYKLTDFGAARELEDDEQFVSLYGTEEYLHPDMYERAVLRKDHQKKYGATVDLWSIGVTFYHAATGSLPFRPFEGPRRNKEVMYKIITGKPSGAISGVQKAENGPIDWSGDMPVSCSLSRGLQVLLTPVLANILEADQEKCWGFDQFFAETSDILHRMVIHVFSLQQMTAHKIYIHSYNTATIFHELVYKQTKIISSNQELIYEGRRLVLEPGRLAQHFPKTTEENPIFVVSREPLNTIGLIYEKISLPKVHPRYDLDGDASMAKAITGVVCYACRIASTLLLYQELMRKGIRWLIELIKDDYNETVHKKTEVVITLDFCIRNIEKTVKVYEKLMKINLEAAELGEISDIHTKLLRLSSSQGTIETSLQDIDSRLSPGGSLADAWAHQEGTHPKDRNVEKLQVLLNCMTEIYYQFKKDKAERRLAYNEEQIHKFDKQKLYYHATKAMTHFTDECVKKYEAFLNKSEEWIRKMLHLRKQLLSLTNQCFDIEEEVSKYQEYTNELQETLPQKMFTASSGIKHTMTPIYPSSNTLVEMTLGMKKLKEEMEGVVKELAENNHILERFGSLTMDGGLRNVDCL
Conditions: not given
As for `N#Cc1cc(-c2ncnc(Nc3ccc(N4CCN(C5COC5)CC4)cc3)n2)ccc1O[C@@H]1CCN(C(=O)CO)C1` [Example 30, (R)-2-((1-(2-hydroxyacetyl)pyrrolidin-3-yl)oxy)-5-(4-((4-(4-(oxetan-3-yl)piperazin-1-yl)phenyl)amino)-1,3,5-triazin-2-yl)benzonitrile], inhibition was half-maximal at 3 nM (IC50).
Still for that read-out and setting: under `N#CCC(=O)N1CCC(Oc2ccc(-c3ncnc(Nc4ccc(N5CCN(C6COC6)CC5)cc4)n3)cc2C#N)CC1` [Example 44, 2-((1-(2-cyanoacetyl)piperidin-4-yl)oxy)-5-(4-((4-(4-(oxetan-3-yl)piperazin-1-yl)phenyl)amino)-1,3,5-triazin-2-yl)benzonitrile] stands 9 nM; under `CS(=O)(=O)c1ccc(Nc2ncnc(-c3ccc(OC4CCOCC4)c(C#N)c3)n2)cc1` [Example 50, 5-(4-((4-(methylsulfonyl)phenyl)amino)-1,3,5-triazin-2-yl)-2-((tetrahydro-2H-pyran-4-yl)oxy)benzonitrile], 5 nM.
Same read-out and setting: under `N#Cc1cc(-c2ncnc(Nc3cccc(N4CCOCC4)c3)n2)ccc1O[C@@H]1CCN(C(=O)CO)C1` [Example 81, (R)-2-((1-(2-hydroxyacetyl)pyrrolidin-3-yl)oxy)-5-(4-((3-morpholinophenyl)amino)-1,3,5-triazin-2-yl)benzonitrile] stands 27 nM.
